Data as given in patent publication US7214494B2, “Method of screening for substance preventing or treating diseases in association with malfunction of IL-6 family cytokine receptor malfunction” (Saten Pharmaceutical Co., Ltd., priority 2000, dated 2007).

System: arthritis in gp130^F759/F759 mice
Assay: Screening test for anti-arthritis agents in gp130F759/F759 mice
Type: in vivo, mouse
Conditions: for arthritis score: gp130^F759/F759 mice developing arthritis, methotrexate 0.4 mg/kg orally five days in a week from age of 9 months
Method: gp130^F759/F759 mice or mice obtained by backcrossing of the gp130^F759/F759 mice (gp130^F759/F759-related mice) were used as a model mouse. A test compound of antirheumatic drugs such as bucilamine and methotrexate, nonsteroidal anti-inflammatory drugs such as diclofenac, or steroidal drugs such as dexamethasone was administered. The administration was conducted before the onset of immune disorders or arthritis for screening of prophylactic drugs, whereas after the observation of visible arthritis for screening of therapeutic drugs. The following is to illustrate the screening test for anti-arthritic agents using methotrexate as a test compound, and screening tests for other compounds would be conducted according to a similar manner to the following.
Methotrexate was administered orally at a dose of 0.4 mg/kg to the mice at the aged of 9 months for five days in a week. […] The severity of arthritis was scored based on restricted range of motion, swelling and flare of digit joints, and the presence or absence of rigidity. The mice whose arthritis conditions were observed constantly for two weeks or more were estimated as developed animal, and incident and severity were determined with time course.

With `CN(Cc1cnc2nc(N)nc(N)c2n1)c1ccc(C(=O)N[C@@H](CCC(=O)O)C(=O)O)cc1` [methotrexate] the arthritis score (aged 48 weeks (12-month-old), control 4.33±1.86) was 1.33±0.33, the arthritis score (aged 53 weeks, control 4.67±0.67) was 0.67±0.33 and the “effect on arthritis in the mouse model” value (gp130^F759/F759 mice, 0.4 mg/kg orally) was “inhibits the arthritis”.
